According to article PMC9322767, “Novel Unspecific Peroxygenase from Truncatella angustata Catalyzes the Synthesis of Bioactive Lipid Mediators” (Microorganisms, 2022):
Structures can show the parent of a compound that is named as a salt. Where two headings read alike, the source gives them in different places.

Key:
TanUPO [1] = system: T1, TanUPO; assay: HPLC-ELSD of […],15-EET formation; assay type: biochemical, Truncatella angustata; settings: co-substrate H2O2 (from glucose/glucose oxidase); 20 mM phosphate pH 7.0, 30 °C, 20% (v/v) acetone; sigmoidal kinetics (Hill)
T1 construct: native wild-type purified from culture of own fungal isolate; glycosylated heme-thiolate protein

TanUPO [2] = settings: read-out: apparent kinetic parameters; co-substrate H2O2 2 mM; McIlvaine buffer pH 4.5

Km (TanUPO [2])	SMILES	Km (TanUPO [1])
	CCCCC/C=C\C/C=C\C/C=C\C/C=C\CCCC(=O)O [arachidonic acid, (5Z,8Z,11Z,14Z)-5,8,11,14-eicosatetraenoic acid]	~200 µM
257 µM	CCn1c(=NN=c2sc3cc(S(=O)(=O)O)ccc3n2CC)sc2cc(S(=O)(=O)O)ccc21 [ABTS, 2,2′-azino-di(3-ethylbenzthiazoline-6-sulfonate) di-ammonium salt]	
